# Data published in patent publication US9510597B2, “Microbicidal composition” (Dow Global Technologies LLC, priority 2012, dated 2016).
# Where a name gives a salt, the structure may show the parent alone.
# Key:
# Format in all cases: cell-based
# [1] = system: Candida albicans (ATCC #10231); assay: Minimum Inhibitory Concentration (MIC) synergy study, yeast; details: for MIC: Candida albicans; for Minimum Inhibitory Concentration (ppm) MBIT: C. albicans, MBIT alone (1:0) or MBIT portion of the mixture
# Protocol: (§1) The synergism of the biocides combination of the present invention was determined using the method described by Kull, F. C, et. all in Applied Microbiology 9:538-541 (1961). […] In this invention, two different approaches of synergistic study were conducted. One synergistic study is determined based on the minimum inhibitory concentration (MIC), the lowest concentration of a biocide prevents the growth of tested microorganism under a specific set of conditions. The second study was based on three to four consecutive challenge testing. This test was conducted to take biocide mode of action and speed of kill into a consideration.
# (§2) The microorganisms tested are Escherichia coli (E. coli, ATCC #8739), yeast, Candida albicans (c. albicans, ATCC #10231) and mold, Aspergillus niger (a. niger, ATCC #16404). The final concentration of microorganisms in the tested media is about 10^4 cfu/mL
# (§3) MBIT synergy with a secondary biocide was determined by evaluating the minimum biocide or biocide blend concentration required to inhibit microbial growth. All studies were conducted using a 96 well microtiter plate format. For all studies, 200 μl of microbial growth media, containing various concentrations of MBIT alone, the secondary biocide alone, or combinations of both biocide chemistries, was added to individual wells of a microtiter plate. Specifically, Tryptic Soy Broth (TSB) was utilized for bacteria (E. coli, ATCC #8739), Yeast Malt Extract Broth (YMB) for yeast (Candida albicans, ATCC #10231) and Potato Dextrose Broth (PDB) for mold (Aspergillus niger, ATCC #16404). Test organisms, at a final concentration of 10^4 CFU/mL or 10^4 spores/mL, were applied to each well in parallel experiments to initiate the MIC evaluations. Growth medium containing no biocide was utilized as a control in each experimental setup to confirm the growth viability of each organism. Eight concentrations (2-fold dilutions) of each individual biocide were evaluated in the microbial growth inhibition studies in addition to the 64 possible combinations of these biocide concentrations. Evaluation of the individual biocide concentrations is required to achieve an inhibitory concentration end point for synergy index calculation. […] Individual wells were scored as growth or no growth based on visual organism growth turbidity.
# [2] = system: Escherichia coli (ATCC #8739); assay: Minimum Inhibitory Concentration (MIC) synergy study, bacteria; details: for Minimum Inhibitory Concentration (ppm) MBIT: E. coli, MBIT alone (1:0) or MBIT portion of the mixture
# Protocol: as §1, §2, §3
# [3] = system: Aspergillus niger (ATCC #16404); assay: Minimum Inhibitory Concentration (MIC) synergy study, mold; details: for Minimum Inhibitory Concentration (ppm) MBIT: A. niger, MBIT alone (1:0) or MBIT portion of the mixture
# Protocol: as §1, §2, §3
# [4] = system: Aspergillus niger (ATCC #16404); assay: Minimum Kill Concentration (MKC) repeated challenge test, mold
# Protocol: as §1
# (§4) MKC evaluations were utilized to determine the synergy of MBIT with the co-biocides DXN (6-Acetoxy-2,4-dimethyl-m-dioxane) and THNM (2-Hydroxymethyl-2-nitro-1,3-propanediol) due to the inability to evaluate these particular biocide chemistries in MIC evaluations. The following test methods were designed for the evaluation of the aforementioned synergistic combinations. The results can be found in Tables 7 and 8.
# (§5) Testing began (day 0) by applying sterile water, supplemented with 2.0% potato dextrose broth, to each well of a 96-well microtiter plate. […] After 48-96 hours of incubation at 30° C., mold kill (to a maximum detection limit of 5×10^1 spores/mL) was visually determined by the presence or lack of turbidity within the PDB.
# [5] = system: Candida albicans (ATCC #10231); assay: Minimum Kill Concentration (MKC) repeated challenge test, yeast
# Protocol: as §1, §4
# as §5, with “yeast malt extract” for “potato dextrose”, “48” for “48-96”, “yeast” for “mold”, “CFU/mL)” for “spores/mL)”, “YMB.” for “PDB.”
# [6] = system: Escherichia coli (ATCC #8739); assay: Minimum Kill Concentration (MKC) repeated challenge test, bacteria; details: for MIC: Escherichia coli; for Minimum Inhibitory Concentration (ppm) MBIT: MBIT alone (1:0) or MBIT portion of the mixture
# Protocol: as §1, §4
# Testing began (day 0) by applying sterile water, supplemented with 2.0% TSB, to each well of a 96-well microtiter plate. Various concentrations of MBIT alone, the co-biocide alone, or combinations of both biocide chemistries, were added to individual wells of the microtiter plate followed by addition of Escherichia coli (ATCC #8739) at a final concentration of 5×10^4 CFU/mL. Equivalent inoculations were applied on days 7, 14 and 21 of the study. To determine the extent of bacterial kill, an aliquot (20 μl) of each sample was taken on days 1, 7, 8, 14, 15, 21, 22 and transferred to tryptic soy broth (180 μl). After 48 hours of incubation at 30° C., bacterial kill (to a maximum detection limit of 5×10^1 CFU/mL) was visually determined by the presence or lack of turbidity within the TSB.
compound,measurement,setting,value
"CCCCCCCCCCCCNC(=N)N [DDG, Dodecylguanidine hydrochloride]",MIC,"[1]; ATCC10231, read-out: Minimum Inhibitory Concentration (ppm) DDG",2000 µg/mL
same,MIC,"[2]; Escherichia coli, ATCC8739, read-out: Minimum Inhibitory Concentration (ppm) DDG",875 µg/mL
same,MIC,"[3]; Aspergillus niger, ATCC16404, read-out: Minimum Inhibitory Concentration (ppm) DDG",750 µg/mL
"CC(=O)OC1CC(C)OC(C)O1 (stereo not drawn) [DXN, 6-Acetoxy-2,4-dimethyl-m-dioxane]",MIC,"[4]; Aspergillus niger, ATCC16404, 504 h, Table 7, kill of A. niger at Day 21, DXN alone (0:1) or DXN portion of the mixture, read-out: Minimum Inhibitory Concentration (ppm) DXN",750 µg/mL
same,MIC,"[5]; Candida albicans, ATCC10231, 504 h, Table 7, kill of C. albicans at day 21, DXN alone (0:1) or DXN portion of the mixture, read-out: Minimum Inhibitory Concentration (ppm) DXN",2000 µg/mL
same,MIC,"[6]; ATCC8739, 168 h, Table 7, kill of E. coli at day 7, DXN alone (0:1) or DXN portion of the mixture, read-out: Minimum Inhibitory Concentration (ppm) DXN",875 µg/mL
"Cn1sc2ccccc2c1=O [MBIT, N-methyl-1,2-benzisothiazolin-3-one]",Minimum Inhibitory Concentration (ppm) MBIT,"[1]; Table 1, MBIT/DDG study",6.25 ppm
same,Minimum Inhibitory Concentration (ppm) MBIT,"[1]; Table 2, MBIT/PHMB study",0.3125 ppm
same,Minimum Inhibitory Concentration (ppm) MBIT,"[1]; Table 5, MBIT/Terbutryn study",3 ppm
same,Minimum Inhibitory Concentration (ppm) MBIT,"[4]; Table 7, MBIT/DXN study, kill of A. niger at Day 21, MBIT alone (1:0) or MBIT portion of the mixture",10 ppm
same,Minimum Inhibitory Concentration (ppm) MBIT,"[2]; Table 1, MBIT/DDG study",62.5 ppm
same,Minimum Inhibitory Concentration (ppm) MBIT,"[2]; Table 2, MBIT/PHMB study",12.5 ppm
same,Minimum Inhibitory Concentration (ppm) MBIT,"[2]; Table 3, MBIT/NaPT study",25 ppm
same,Minimum Inhibitory Concentration (ppm) MBIT,"[5]; Table 7, MBIT/DXN study, kill of C. albicans at day 21, MBIT alone (1:0) or MBIT portion of the mixture",6.25 ppm
same,Minimum Inhibitory Concentration (ppm) MBIT,"[3]; Table 1, MBIT/DDG study",10 ppm
same,Minimum Inhibitory Concentration (ppm) MBIT,"[3]; Table 3, MBIT/NaPT study",6.3 ppm
same,Minimum Inhibitory Concentration (ppm) MBIT,"[3]; Table 4, MBIT/NaOPP study",6.3 ppm
same,Minimum Inhibitory Concentration (ppm) MBIT,"[6]; Table 7, MBIT/DXN study, kill of E. coli at day 7",62.5 ppm
same,Minimum Inhibitory Concentration (ppm) MBIT,"[6]; Table 8, MBIT/THNM study, kill of E. coli at day 21",125 ppm
"[Na+].[O-]c1ccccc1-c1ccccc1 [NaOPP, sodium ortho-phenylphenate]",Minimum Inhibitory Concentration (ppm) NaOPP,"[3]; Table 4, A. niger, NaOPP alone (0:1) or NaOPP portion of the mixture",200 ppm
"[Na+].[O-][n+]1ccccc1[S-] [NaPT, Sodium pyrithione]",Minimum Inhibitory Concentration (ppm) NaPT,"[2]; Table 3, E. coli, NaPT alone (0:1) or NaPT portion of the mixture",2.5 ppm
same,Minimum Inhibitory Concentration (ppm) NaPT,"[3]; Table 3, A. niger, NaPT alone (0:1) or NaPT portion of the mixture",25 ppm
"O=[N+]([O-])C(CO)(CO)CO [THNM, 2-Hydroxymethyl-2-nitro-1,3-propanediol]",MIC,"[6]; ATCC8739, 504 h, Table 8, kill of E. coli at day 21, THNM alone (0:1) or value printed for the mixture, read-out: Minimum Inhibitory Concentration (ppm) THMN",125 µg/mL
CCNc1nc(NC(C)(C)C)nc(SC)n1 [Terbutryn],MIC,"[1]; ATCC10231, Table 5, C. albicans, Terbutryn alone (0:1) or Terbutryn portion of the mixture, read-out: Minimum Inhibitory Concentration (ppm) Terbutryn",> 20000 µg/mL
